From patent US6737383B1, “Herbicidal oxadiazolidines” (priority 1999, dated 2004)

Experiments:
[1] = test system: blackgrass; experiment: Test E blackgrass; assay type: in vivo, Alopecurus myosuroides; details: Preemergence
[2] = test system: green foxtail; experiment: Test E green foxtail; assay type: in vivo, Setaria viridis; details: Preemergence
[3] = test system: winter wheat; experiment: Test E winter wheat; assay type: in vivo, Triticum aestivum; details: Preemergence
[4] = test system: bedstraw; experiment: Test B pre/postemergence bedstraw; assay type: in vivo, Galium aparine; details: Preemergence; for Bedstraw plant response rating: scale of 0 to 10 where 0 is no effect and 10 is complete control
Summary of the method: (§1)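 Herbicidal effect was estimated by eye on a ten-point control scale after plants spent twelve to sixteen days in a greenhouse following soil or foliar treatment. Foliar sprays targeted plants at one to four leaves; all doses were formulated in a non-phytotoxic solvent with surfactant.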

[5] = test system: surinam grass; experiment: Test B pre/postemergence surinam grass; assay type: in vivo, Brachiaria decumbens
Summary of the method: as §1

[6] = test system: Italian ryegrass; experiment: Test E Italian ryegrass; assay type: in vivo, Lolium multiflorum; details: Preemergence
[7] = test system: wild oat; experiment: Test E wild oat; assay type: in vivo, Avena fatua; details: Preemergence
[8] = test system: winter barley; experiment: Test E winter barley; assay type: in vivo, Hordeum vulgare; details: Preemergence
[9] = test system: winter wheat; experiment: Test E winter wheat; assay type: in vivo, Triticum aestivum; details: Postemergence, 0 to 100 scale, 0 is no effect, 100 is complete control
Summary of the method: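 Greenhouse test: compounds in non-phytotoxic solvent with surfactant; for postemergence, sprayed on plants at 1- to 4-leaf stage grown in 60:40 sandy loam/potting mix. Injury rated visually against untreated controls after about 21 to 28 days.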

[10] = test system: crabgrass; experiment: Test B pre/postemergence crabgrass; assay type: in vivo, Digitaria sanguinalis; details: for Crabgrass plant response rating: scale of 0 to 10 where 0 is no effect and 10 is complete control
Summary of the method: as §1

[11] = test system: corn; experiment: Test B pre/postemergence corn; assay type: in vivo, Zea mays; details: for Corn plant response rating: scale of 0 to 10 where 0 is no effect and 10 is complete control
Summary of the method: as §1

[12] = Rate 125 g/ha, 0 to 100 scale (0 no effect, 100 complete control)
[13] = Rate 500 g/ha, 0 to 100 scale (0 no effect, 100 complete control)
[14] = Postemergence, Rate 125 g/ha, scale 0 to 10, 0 is no effect, 10 is complete control
[15] = Preemergence, Rate 62 g/ha, scale 0 to 10 (0 no effect, 10 complete control)
[16] = Preemergence, Rate 250 g/ha, scale of 0 to 10 where 0 is no effect and 10 is complete control
[17] = Preemergence, Rate 500 g/ha, scale of 0 to 10 where 0 is no effect and 10 is complete control
[18] = Rate 62 g/ha, Postemergence, scale of 0 to 10 where 0 is no effect and 10 is complete control
[19] = Rate 500 g/ha, Postemergence, scale 0 to 10, 0 no effect, 10 complete control
[20] = Rate 250 g/ha, 0 to 100 scale, 0 no effect, 100 complete control
[21] = Postemergence, Rate 250 g/ha, scale 0 to 10, 0 is no effect, 10 is complete control

CC(C)N(C(=O)n1oc(=O)n(C2CCC2)c1=O)c1ccc(F)cc1F [Compound 351]
Plant response rating, Blackgrass [1, 12]: 35 | Plant response rating, Blackgrass ([1]; Rate 250 g/ha, 0 to 100 scale): 85 | Plant response rating, Blackgrass [1, 13]: 100 | Plant response rating, Green foxtail [2, 12]: 40 | Plant response rating, Green foxtail ([2]; Rate 250 g/ha, 0 to 100 scale): 90 | Plant response rating, Green foxtail [2, 13]: 85 | Plant response rating, Wheat (winter) [3, 12]: 50 | Plant response rating, Wheat (winter) ([3]; Rate 250 g/ha, 0 to 100 scale): 60 | Plant response rating, Wheat (winter) [3, 13]: 70 | Bedstraw plant response rating ([4]; Rate 250 g/ha): 9 | Bedstraw plant response rating ([4]; Rate 500 g/ha): 10 | Plant response rating, B. signalgrass [5, 14]: 0 | Plant response rating, B. signalgrass [5, 15]: 0 | B. signalgrass plant response rating (0 to 10 scale, 0 is no effect, 10 is complete control) ([5]; Preemergence, Rate 125 g/ha): 0 | B. signalgrass plant response rating [5, 16]: 2 | B. signalgrass plant response rating [5, 17]: 4 | B. signalgrass plant response rating [5, 18]: 0 | Plant response rating, B. signalgrass ([5]; Rate 250 g/ha, Postemergence, scale of 0 to 10 where 0 is no effect and 10 is complete control): 0 | Plant response rating, B. signalgrass [5, 19]: 4 | Plant response rating, I. Ryegrass [6, 12]: 55 | Plant response rating, I. Ryegrass ([6]; Rate 250 g/ha, 0 to 100 scale): 60 | Plant response rating, I. Ryegrass [6, 13]: 60 | Plant response rating, Wild oat [7, 12]: 70 | Plant response rating, Wild oat ([7]; Rate 250 g/ha, 0 to 100 scale): 70 | Plant response rating, Wild oat [7, 13]: 80 | Plant response rating, Barley (winter) [8, 12]: 70 | Plant response rating, Barley (winter) [8, 20]: 70 | Plant response rating, Barley (winter) [8, 13]: 80 | Plant response rating, Wheat (winter) ([9]; Rate 125 g/ha): 60 | Plant response rating, Wheat (winter) ([9]; Rate 250 g/ha): 70 | Plant response rating, Wheat (winter) ([9]; Rate 500 g/ha): 75 | Plant response rating, Crabgrass [10, 14]: 1 | Plant response rating, Crabgrass [10, 15]: 7 | Crabgrass plant response rating (0 to 10 scale) ([10]; Preemergence, Rate 125 g/ha): 10 | Crabgrass plant response rating ([10]; Preemergence, Rate 250 g/ha): 10 | Crabgrass plant response rating ([10]; Preemergence, Rate 500 g/ha): 10 | Crabgrass plant response rating ([10]; Rate 62 g/ha, Postemergence): 0 | Plant response rating, Crabgrass [10, 19]: 9 | Plant response rating, Corn [11, 14]: 0 | Plant response rating, Corn [11, 15]: 0 | Corn plant response rating (0 to 10 scale) ([11]; Preemergence, Rate 125 g/ha): 0 | Corn plant response rating ([11]; Preemergence, Rate 250 g/ha): 3 | Corn plant response rating ([11]; Preemergence, Rate 500 g/ha): 6 | Corn plant response rating ([11]; Rate 62 g/ha, Postemergence): 0 | Plant response rating, Corn [11, 19]: 0

CC1CC1n1c(=O)on(C(=O)N(c2ccccc2)C(C)C)c1=O (stereo not drawn) [Compound 370]
Plant response rating, Blackgrass [1, 12]: 50 | Plant response rating, Blackgrass ([1]; Rate 250 g/ha, 0 to 100 scale): 70 | Plant response rating, Blackgrass [1, 13]: 100 | Plant response rating, Green foxtail [2, 12]: 70 | Plant response rating, Green foxtail ([2]; Rate 250 g/ha, 0 to 100 scale): 100 | Plant response rating, Green foxtail [2, 13]: 100 | Plant response rating, Wheat (winter) [3, 12]: 50 | Plant response rating, Wheat (winter) ([3]; Rate 250 g/ha, 0 to 100 scale): 40 | Plant response rating, Wheat (winter) [3, 13]: 60 | Plant response rating, Bedstraw ([4]; Rate 62 g/ha, scale 0 to 10 (0 no effect, 10 complete control)): 0 | Bedstraw plant response rating (0 to 10 scale) ([4]; Rate 125 g/ha): 3 | Bedstraw plant response rating ([4]; Rate 250 g/ha): 3 | Plant response rating, B. signalgrass [5, 14]: 2 | Plant response rating, B. signalgrass [5, 21]: 4 | Plant response rating, B. signalgrass [5, 15]: 0 | B. signalgrass plant response rating (0 to 10 scale, 0 is no effect, 10 is complete control) ([5]; Preemergence, Rate 125 g/ha): 0 | B. signalgrass plant response rating [5, 16]: 2 | B. signalgrass plant response rating [5, 17]: 5 | B. signalgrass plant response rating [5, 18]: 0 | Plant response rating, B. signalgrass [5, 19]: 6 | Plant response rating, I. Ryegrass [6, 12]: 55 | Plant response rating, I. Ryegrass ([6]; Rate 250 g/ha, 0 to 100 scale): 85 | Plant response rating, I. Ryegrass [6, 13]: 90 | Plant response rating, Wild oat [7, 12]: 60 | Plant response rating, Wild oat ([7]; Rate 250 g/ha, 0 to 100 scale): 75 | Plant response rating, Wild oat [7, 13]: 90 | Plant response rating, Barley (winter) [8, 12]: 60 | Plant response rating, Barley (winter) [8, 20]: 60 | Plant response rating, Barley (winter) [8, 13]: 70 | Plant response rating, Wheat (winter) ([9]; Rate 125 g/ha): 70 | Plant response rating, Wheat (winter) ([9]; Rate 250 g/ha): 80 | Plant response rating, Wheat (winter) ([9]; Rate 500 g/ha): 85 | Plant response rating, Crabgrass [10, 14]: 7 | Plant response rating, Crabgrass [10, 21]: 7 | Plant response rating, Crabgrass [10, 15]: 7 | Crabgrass plant response rating (0 to 10 scale) ([10]; Preemergence, Rate 125 g/ha): 8 | Crabgrass plant response rating ([10]; Preemergence, Rate 250 g/ha): 9 | Crabgrass plant response rating ([10]; Preemergence, Rate 500 g/ha): 10 | Crabgrass plant response rating ([10]; Rate 62 g/ha, Postemergence): 3 | Plant response rating, Crabgrass [10, 19]: 9 | Plant response rating, Corn [11, 14]: 0 | Plant response rating, Corn [11, 21]: 0 | Plant response rating, Corn [11, 15]: 0 | Corn plant response rating (0 to 10 scale) ([11]; Preemergence, Rate 125 g/ha): 2 | Corn plant response rating ([11]; Preemergence, Rate 250 g/ha): 4 | Corn plant response rating ([11]; Preemergence, Rate 500 g/ha): 9 | Corn plant response rating ([11]; Rate 62 g/ha, Postemergence): 0 | Plant response rating, Corn [11, 19]: 5
